Laboratory results: patent US10111435B2, “Herbicidal compositions containing N-(1,3,4-oxadiazol-2-yl)-aryl carboxylic acid amides” (BAYER CROPSCIENCE AKTIENGESELLSCHAFT, priority 2013, dated 2018)

Experiments:
Type in all cases: in vivo
[1] = test system: Poa annua (POAAN); experiment: greenhouse post-emergence herbicidal efficacy against POAAN
Experimental: (§1) All trials whose results are shown were conducted in a greenhouse by the methodology specified below. The effect of the inventive herbicidal compositions was examined on the following harmful plants 14 and 21 days after application:
(§2) Echinochloa crus-galli (ECHCG), Eleusine indica (ELEIN), Setaria viridis (SETVI), Amaranthus retroflexus (AMARE), Chenopodium album (CHEAL), Kochia scoparia (KCHSC), Solanum nigrum (SOLNI), Avena fatua (AVEFA), Bromus sterilis (BROST), Lolium multiflorum (LOLMU), Phalaris minor (PHAMI), Poa annua (POAAN), Galium aparine (GALAP), Matricaria inodora (MATIN) and Polygonum convolvulus (POLCO).
(§3) The harmful plant seeds were sown in pots (diameter 8 cm) with sandy loam soil and germinated under optimal conditions. The inventive herbicidal compositions or the active ingredients alone were applied post-emergence to the planted pots with a spray volume of 300 L/ha. The trial was conducted in a greenhouse under optimum growth conditions. The herbicidal effects were assessed visually by comparison of untreated and treated plants. The percentages mean: 0%=no effects, 100%=the plants die off completely).
(§4) The abbreviations mean: • a.i.=active ingredient • E^C=expected value according to Colby (E^C=A+B−A×B/100) • Diff: =difference (%) of measured value from expected value (%) (measured value minus expected value)
(§5) Assessment: • measured value E is greater than E^C:->synergism (+ diff.) • measured value E equals E^C:->additive effect • measured value E is smaller than E^C:->antagonism(− diff.)

[2] = test system: Polygonum convolvulus (POLCO); experiment: greenhouse post-emergence herbicidal efficacy against POLCO
Experimental: as §1, §2, §3, §4, §5

[3] = test system: Avena fatua (AVEFA); experiment: greenhouse post-emergence herbicidal efficacy against AVEFA
Experimental: as §1, §2, §3, §4, §5

[4] = test system: Lolium multiflorum (LOLMU); experiment: greenhouse post-emergence herbicidal efficacy against LOLMU
Experimental: as §1, §2, §3, §4, §5

[5] = test system: Phalaris minor (PHAMI); experiment: greenhouse post-emergence herbicidal efficacy against PHAMI
Experimental: as §1, §2, §3, §4, §5

[6] = test system: Matricaria inodora (MATIN); experiment: greenhouse post-emergence herbicidal efficacy against MATIN
Experimental: as §1, §2, §3, §4, §5

[7] = test system: Bromus sterilis (BROST); experiment: greenhouse post-emergence herbicidal efficacy against BROST
Experimental: as §1, §2, §3, §4, §5

[8] = test system: Galium aparine (GALAP); experiment: greenhouse post-emergence herbicidal efficacy against GALAP
Experimental: as §1, §2, §3, §4, §5

[9] = 14 days after application, 20 g of a.i./ha
[10] = 21 days after application, g of a.i./ha: A2-1 12.5, fluroxypyr 20
[11] = 21 days after application, g of a.i./ha: A2-1 12.5, fluroxypyr 80
[12] = 21 days after application, g of a.i./ha: A2-1 50, fluroxypyr 20
[13] = 14 days after application, 80 g of a.i./ha
[14] = 21 days after application, g of a.i./ha: A2-1 50, fluroxypyr 80
[15] = 14 days after application, 320 g of a.i./ha
[16] = 21 days after application, g of a.i./ha: A1-36 10, flurtamone 80
[17] = 21 days after application, g of a.i./ha: A1-36 10, flurtamone 320
[18] = 21 days after application, g of a.i./ha: A1-36 2.5, flurtamone 80
[19] = 21 days after application, g of a.i./ha: A1-36 2.5, flurtamone 320
[20] = 21 days after application, g of a.i./ha: A1-13 2.5, indaziflam 40
[21] = 21 days after application, g of a.i./ha: A1-13 10, indaziflam 40
[22] = 21 days after application, g of a.i./ha: A1-13 10, indaziflam 10
[23] = 14 days after application, g of a.i./ha: A1-13 2.5, indaziflam 10
[24] = 14 days after application, g of a.i./ha: A1-13 10, indaziflam 40
[25] = 14 days after application, g of a.i./ha: A1-60 2.5, isoproturon 1600
[26] = 14 days after application, g of a.i./ha: A1-60 10, isoproturon 400
[27] = 14 days after application, g of a.i./ha: A1-60 10, isoproturon 1600
[28] = 21 days after application, g of a.i./ha: A1-60 10, isoproturon 400
[29] = 14 days after application, g of a.i./ha: A1-60 2.5, isoproturon 400
[30] = 21 days after application, g of a.i./ha: A1-60 2.5, isoproturon 400
[31] = 21 days after application, g of a.i./ha: A1-60 10, isoproturon 1600
[32] = 14 days after application, 25 g of a.i./ha
[33] = 14 days after application, 100 g of a.i./ha
[34] = 21 days after application, g of a.i./ha: A1-14 2.5, pyrasulfotole 25
[35] = 21 days after application, g of a.i./ha: A1-14 2.5, pyrasulfotole 100
[36] = 21 days after application, g of a.i./ha: A1-14 10, pyrasulfotole 25
[37] = 21 days after application, g of a.i./ha: A1-14 10, pyrasulfotole 100
[38] = 14 days after application, g of a.i./ha: A1-7 2.5, saflufenacil 2
[39] = 14 days after application, g of a.i./ha: A1-7 2.5, saflufenacil 8
[40] = 21 days after application, g of a.i./ha: A1-7 10, saflufenacil 8

Nc1c(Cl)c(F)nc(OCC(=O)O)c1Cl [fluroxypyr]
Efficacy [1, 9]: 0%
Efficacy [1, 10]: 0%
Efficacy [1, 11]: 10%
Efficacy [2, 9]: 70%
Efficacy [2, 10]: 80%
Efficacy [2, 12]: 80%
Efficacy [3, 13]: 0%
Efficacy [3, 11]: 0%
Efficacy [3, 14]: 0%
Efficacy [4, 13]: 0%
Efficacy [4, 14]: 0%
Efficacy [5, 13]: 15%
Efficacy [5, 11]: 0%
Efficacy [5, 14]: 0%
Efficacy [6, 10]: 20%
Efficacy [6, 11]: 50%
Efficacy [6, 12]: 20%
Efficacy [6, 14]: 50%
Efficacy [7, 13]: 0%
Efficacy [7, 14]: 0%

CNC1=C(c2cccc(C(F)(F)F)c2)C(=O)C(c2ccccc2)O1 (stereo not shown) [flurtamone]
Efficacy [2, 13]: 50%
Efficacy [2, 15]: 30%
Efficacy [2, 16]: 0%
Efficacy [2, 17]: 30%
Efficacy [3, 13]: 0%
Efficacy [3, 15]: 15%
Efficacy [3, 18]: 0%
Efficacy [3, 19]: 0%
Efficacy [3, 16]: 0%
Efficacy [3, 17]: 0%
Efficacy [4, 13]: 30%
Efficacy [4, 16]: 20%
Efficacy [8, 13]: 40%
Efficacy [8, 15]: 80%
Efficacy [8, 18]: 0%
Efficacy [8, 16]: 0%
Efficacy [8, 17]: 70%
Efficacy [5, 13]: 40%
Efficacy [5, 15]: 50%
Efficacy [5, 16]: 40%
Efficacy [6, 13]: 50%
Efficacy [6, 15]: 50%
Efficacy [6, 18]: 25%
Efficacy [6, 19]: 30%
Efficacy [6, 16]: 25%
Efficacy [6, 17]: 30%
Efficacy [7, 13]: 0%
Efficacy [7, 15]: 10%
Efficacy [7, 18]: 0%
Efficacy [7, 19]: 10%

Cc1ccc2c(c1)[C@H](Nc1nc(N)nc(C(C)F)n1)[C@@H](C)C2 (stereo partly shown) [indaziflam]
Efficacy against POAAN ([1]; 21 days after application, dosage 10 g of a.i./ha): 0%
Efficacy [3, 20]: 10%
Efficacy [3, 21]: 10%
Efficacy [4, 22]: 0%
Efficacy [8, 23]: 50%
Efficacy [8, 24]: 60%
Efficacy against GALAP ([8]; 21 days after application, dosage 40 g of a.i./ha): 35%
Efficacy ([5]; 14 days after application, g of a.i./ha: A1-13 2.5, indaziflam 40): 10%
Efficacy [5, 24]: 10%
Efficacy [5, 20]: 10%
Efficacy [5, 21]: 10%
Efficacy [6, 23]: 30%
Efficacy ([6]; 14 days after application, g of a.i./ha: A1-13 10, indaziflam 10): 30%
Efficacy [7, 22]: 0%

CC(C)c1ccc(NC(=O)N(C)C)cc1 [isoproturon]
Efficacy [1, 25]: 80%
Efficacy [1, 26]: 60%
Efficacy [1, 27]: 80%
Efficacy [1, 28]: 30%
Efficacy [3, 29]: 0%
Efficacy [3, 26]: 0%
Efficacy [3, 27]: 35%
Efficacy [3, 30]: 0%
Efficacy [3, 28]: 0%
Efficacy [3, 31]: 15%
Efficacy [4, 29]: 0%
Efficacy [4, 25]: 15%
Efficacy [4, 26]: 0%
Efficacy [4, 27]: 15%
Efficacy [4, 28]: 0%
Efficacy [4, 31]: 0%
Efficacy [8, 29]: 10%
Efficacy [8, 25]: 20%
Efficacy [8, 26]: 10%
Efficacy [8, 27]: 20%
Efficacy [8, 30]: 0%
Efficacy ([8]; 21 days after application, g of a.i./ha: A1-60 2.5, isoproturon 1600): 0%
Efficacy [8, 28]: 0%
Efficacy [8, 31]: 0%
Efficacy [5, 29]: 35%
Efficacy [5, 26]: 35%
Efficacy [5, 27]: 80%
Efficacy [5, 30]: 15%
Efficacy [5, 28]: 15%
Efficacy [6, 30]: 90%
Efficacy [6, 28]: 90%
Efficacy [7, 29]: 0%
Efficacy [7, 25]: 5%
Efficacy [7, 26]: 0%
Efficacy [7, 27]: 5%
Efficacy [7, 28]: 0%
Efficacy [7, 31]: 0%

Cc1nn(C)c(O)c1C(=O)c1ccc(C(F)(F)F)cc1S(C)(=O)=O [pyrasulfotole]
Efficacy [1, 32]: 0%
Efficacy [1, 33]: 0%
Efficacy [1, 34]: 0%
Efficacy [1, 35]: 0%
Efficacy [2, 32]: 50%
Efficacy [2, 33]: 60%
Efficacy [2, 34]: 0%
Efficacy [2, 35]: 30%
Efficacy [2, 36]: 0%
Efficacy [2, 37]: 30%
Efficacy [4, 32]: 0%
Efficacy [4, 33]: 0%
Efficacy [8, 34]: 40%
Efficacy [8, 36]: 40%
Efficacy [5, 32]: 0%
Efficacy [5, 33]: 5%
Efficacy [5, 34]: 0%
Efficacy [5, 35]: 0%
Efficacy [6, 32]: 0%
Efficacy [6, 33]: 15%
Efficacy [6, 35]: 3%
Efficacy [7, 32]: 0%
Efficacy [7, 37]: 0%

CC(C)N(C)S(=O)(=O)NC(=O)c1cc(-n2c(=O)cc(C(F)(F)F)n(C)c2=O)c(F)cc1Cl [saflufenacil]
Efficacy [2, 38]: 0%
Efficacy [2, 39]: 10%
Efficacy ([2]; 14 days after application, g of a.i./ha: A1-7 10, saflufenacil 2): 0%
Efficacy ([2]; 14 days after application, g of a.i./ha: A1-7 10, saflufenacil 8): 10%
Efficacy ([2]; 21 days after application, g of a.i./ha: A1-7 2.5, saflufenacil 2): 0%
Efficacy ([2]; 21 days after application, g of a.i./ha: A1-7 2.5, saflufenacil 8): 0%
Efficacy ([2]; 21 days after application, g of a.i./ha: A1-7 10, saflufenacil 2): 0%
Efficacy [2, 40]: 0%
Efficacy [3, 38]: 0%
Efficacy [4, 38]: 0%
Efficacy [4, 39]: 10%
Efficacy [7, 40]: 5%
